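Exposure lasted 48 hours, with cells grown in 96-well plates and compounds tested at five concentrations. GI50 marks 50% less growth.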 Active and inactive are the calls of the source. Rule as the data show it: active = GI50 up to about 1.1 µM and inactive = higher.
Experiments:
Assay in all cases: NCI-60 cell line screen, 48 h
[1] = test system: MOLT-4
[2] = test system: NCI-H522
[3] = test system: HCT-15
[4] = test system: MDA-MB-231
[5] = test system: SF-295
[6] = test system: LOX IMVI
[7] = test system: CAKI-1
[8] = test system: Hs-578T
[9] = test system: NCI-H23
[10] = test system: NCI-H226
[11] = test system: U-251
[12] = test system: SN12C
[13] = test system: A498
[14] = test system: OVCAR-5
[15] = test system: Malme-3M
[16] = test system: SF-268
[17] = test system: HCT-116
[18] = test system: EKVX
[19] = test system: HL-60
[20] = test system: HCC 2998

SMILES: COc1ccc2c(Cl)cc(NC(=S)Nc3ccccc3)nc2c1
- GI50 [1]: 25.2 µM (inactive)
- GI50 [2]: 13.2 µM (inactive)
- GI50 [3]: 27.9 µM
- GI50 [4]: 26.4 µM (inactive)
- GI50 [5]: 31.6 µM (inactive)
- GI50 [6]: 21.1 µM (inactive)
- GI50 [7]: 35.6 µM (inactive)
- GI50 [8]: 14.4 µM (inactive)
- GI50 [9]: 23.4 µM (inactive)
- GI50 [10]: 55.5 µM (inactive)
- GI50 [11]: 20 µM (inactive)
- GI50 [12]: 33.3 µM (inactive)
- GI50 [13]: 21.1 µM (inactive)
- GI50 [14]: 30.1 µM (inactive)
- GI50 [15]: 15.2 µM (inactive)
- GI50 [16]: 24.8 µM (inactive)
- GI50 [17]: 20.2 µM (inactive)
- GI50 [18]: 22 µM (inactive)

SMILES: CC(NC(=O)c1ccccc1)(C(=O)O)C(=O)O
- GI50 [19]: > 100 µM (inactive)
- GI50 [1]: > 100 µM (inactive)
- GI50 [2]: > 100 µM (inactive)
- GI50 [3]: > 100 µM
- GI50 [4]: > 100 µM (inactive)
- GI50 [5]: > 100 µM (inactive)
- GI50 [6]: > 100 µM (inactive)
- GI50 [7]: > 100 µM (inactive)
- GI50 [8]: > 100 µM (inactive)
- GI50 [9]: > 100 µM (inactive)
- GI50 [10]: > 100 µM (inactive)
- GI50 [11]: > 100 µM (inactive)
- GI50 [12]: > 100 µM (inactive)
- GI50 [13]: > 100 µM (inactive)
- GI50 [14]: > 100 µM (inactive)
- GI50 [15]: > 100 µM (inactive)
- GI50 [16]: > 100 µM (inactive)
- GI50 [17]: > 100 µM (inactive)
- GI50 [18]: > 100 µM (inactive)

SMILES: CN1CCN(c2ccc([N+](=O)[O-])c3no[n+]([O-])c23)CC1
- GI50 [19]: 0.0366 µM (active)
- GI50 [2]: 0.0295 µM (active)
- GI50 [3]: 0.489 µM
- GI50 [4]: 1.34 µM (inactive)
- GI50 [5]: 0.0424 µM (active)
- GI50 [6]: 0.0485 µM (active)
- GI50 [7]: 0.032 µM (active)
- GI50 [8]: 0.571 µM (active)
- GI50 [9]: < 0.0359 µM (active)
- GI50 [10]: 0.604 µM (active)
- GI50 [11]: 0.097 µM (active)
- GI50 [12]: 0.106 µM (active)
- GI50 [13]: 1.04 µM (active)
- GI50 [14]: 1.76 µM (inactive)
- GI50 [15]: 0.16 µM (active)
- GI50 [16]: 0.0375 µM (active)
- GI50 [17]: 0.12 µM (active)
- GI50 [18]: 1.19 µM (inactive)

SMILES: C[C@H](c1ccccc1)N1C(=O)[C@@H](OCc2ccccc2)[C@H]1[C@H](COC(=O)COCc1ccccc1)OCc1ccccc1
- GI50 [1]: 67.5 µM (inactive)
- GI50 [2]: 86.9 µM (inactive)
- GI50 [3]: > 100 µM
- GI50 [4]: > 100 µM (inactive)
- GI50 [5]: > 100 µM (inactive)
- GI50 [6]: > 100 µM (inactive)
- GI50 [8]: 60.7 µM (inactive)
- GI50 [9]: 57.3 µM (inactive)
- GI50 [10]: 6.95 µM (inactive)
- GI50 [11]: > 100 µM (inactive)
- GI50 [12]: > 100 µM (inactive)
- GI50 [13]: > 100 µM (inactive)
- GI50 [14]: > 100 µM (inactive)
- GI50 [15]: 11.6 µM (inactive)
- GI50 [16]: > 100 µM (inactive)
- GI50 [17]: > 100 µM (inactive)
- GI50 [18]: > 100 µM (inactive)

SMILES: COc1cc(/C=C2\C(=O)N(c3ccc(NC(C)=O)cc3)C(c3ccccc3)S2(=O)=O)cc(OC)c1OC (stereo not drawn)
- GI50 [19]: 18.3 µM (inactive)
- GI50 [1]: 25.1 µM (inactive)
- GI50 [2]: > 100 µM (inactive)
- GI50 [3]: > 100 µM
- GI50 [4]: > 100 µM (inactive)
- GI50 [20]: > 100 µM (inactive)
- GI50 [5]: 78 µM (inactive)
- GI50 [6]: > 100 µM (inactive)
- GI50 [7]: > 100 µM (inactive)
- GI50 [9]: > 100 µM (inactive)
- GI50 [10]: > 100 µM (inactive)
- GI50 [11]: > 100 µM (inactive)
- GI50 [12]: > 100 µM (inactive)
- GI50 [13]: > 100 µM (inactive)
- GI50 [14]: > 100 µM (inactive)
- GI50 [15]: > 100 µM (inactive)
- GI50 [17]: > 100 µM (inactive)
- GI50 [18]: 91.4 µM (inactive)

SMILES: COc1ccc2[nH]c3c(C)c4ncccc4c(C)c3c2c1
- GI50 [19]: 3.01 µM (inactive)
- GI50 [1]: 4.04 µM (inactive)
- GI50 [2]: > 10 µM (inactive)
- GI50 [3]: 2.99 µM
- GI50 [4]: > 10 µM (inactive)
- GI50 [20]: 8.97 µM (inactive)
- GI50 [5]: 2.43 µM (inactive)
- GI50 [7]: > 10 µM (inactive)
- GI50 [8]: > 10 µM (inactive)
- GI50 [9]: > 10 µM (inactive)
- GI50 [10]: 4.41 µM (inactive)
- GI50 [11]: 8.43 µM (inactive)
- GI50 [12]: 4.78 µM (inactive)
- GI50 [14]: 5.61 µM (inactive)
- GI50 [15]: 1.65 µM (inactive)
- GI50 [16]: > 10 µM (inactive)
- GI50 [17]: 3.4 µM (inactive)
- GI50 [18]: 4.97 µM (inactive)

SMILES: CCn1c(-c2ccc(OC)cc2)nc2c1C(=O)c1ccccc1C2=O
- GI50 [19]: > 100 µM (inactive)
- GI50 [1]: > 100 µM (inactive)
- GI50 [2]: > 100 µM (inactive)
- GI50 [3]: > 100 µM
- GI50 [4]: > 100 µM (inactive)
- GI50 [20]: > 100 µM (inactive)
- GI50 [5]: > 100 µM (inactive)
- GI50 [8]: > 100 µM (inactive)
- GI50 [9]: > 100 µM (inactive)
- GI50 [10]: 61.1 µM (inactive)
- GI50 [11]: > 100 µM (inactive)
- GI50 [12]: > 100 µM (inactive)
- GI50 [14]: > 100 µM (inactive)
- GI50 [15]: > 100 µM (inactive)
- GI50 [16]: > 100 µM (inactive)
- GI50 [17]: > 100 µM (inactive)
- GI50 [18]: > 100 µM (inactive)

SMILES: C=C(C)CCC1CCCCC(CN(C)C)C1=O (stereo not drawn)
- GI50 [19]: > 100 µM (inactive)
- GI50 [1]: 31.3 µM (inactive)
- GI50 [2]: 10.7 µM (inactive)
- GI50 [3]: > 100 µM
- GI50 [4]: > 100 µM (inactive)
- GI50 [5]: > 100 µM (inactive)
- GI50 [6]: > 100 µM (inactive)
- GI50 [7]: > 100 µM (inactive)
- GI50 [8]: > 100 µM (inactive)
- GI50 [9]: > 100 µM (inactive)
- GI50 [10]: > 100 µM (inactive)
- GI50 [11]: > 100 µM (inactive)
- GI50 [12]: > 100 µM (inactive)
- GI50 [13]: > 100 µM (inactive)
- GI50 [14]: > 100 µM (inactive)
- GI50 [16]: > 100 µM (inactive)
- GI50 [17]: > 100 µM (inactive)
- GI50 [18]: > 100 µM (inactive)

From ChEMBL document CHEMBL1201862, “PubChem BioAssay data set” (2004)
